Data taken from patent US9265253B2, “Use of macrocyclic picolinamides as fungicides” (DOW AGROSCIENCES LLC, priority 2013, dated 2016).
Like-named read-outs stand apart in the source and are kept apart here.

Tests used:
[1] = tested on: Mycosphaerella graminicola; Anamorph: Septoria tritici; experiment: Leaf Blotch of Wheat (SEPTTR) disease control; format: in vivo; settings: Zymoseptoria tritici, rate 100 ppm
Procedure: (§1) Technical grades of materials were dissolved in acetone, which were then mixed with nine volumes of water containing 110 ppm Triton X-100. The fungicide solutions were applied onto wheat seedlings using an automated booth sprayer to run-off. All sprayed plants were allowed to air dry prior to further handling. All fungicides were evaluated using the aforementioned method for their activity vs. all target diseases. Wheat leaf blotch and brown rust activity were also evaluated using track spray applications, in which case the fungicides were formulated as EC formulations, containing 0.1% Trycol 5941 in the spray solutions. Wheat plants (variety Yuma) were grown from seed in a greenhouse in 50% mineral soil/50% soil-less Metro mix until the first leaf was fully emerged, with 7-10 seedlings per pot. These plants were inoculated with an aqueous spore suspension of Septoria tritici either prior to or after fungicide treatments. After inoculation the plants were kept in 100% relative humidity (one day in a dark dew chamber followed by two to three days in a lighted dew chamber at 20° C.) to permit spores to germinate and infect the leaf. The plants were then transferred to a greenhouse set at 20° C. for disease to develop. When disease symptoms were fully expressed on the 1st leaves of untreated plants, infection levels were assessed on a scale of 0 to 100 percent disease severity. Percent disease control was calculated using the ratio of disease severity on treated plants relative to untreated plants.

[2] = tested on: Puccinia triticina; Synonym: Puccinia recondite f. Sp. Tritici; experiment: Wheat Brown Rust (PUCCRT) disease control; format: in vivo; settings: Puccinia triticina, topical, rate 100 ppm
Procedure: as §1, with “plants. Wheat plants (variety Yuma) were grown from seed in a greenhouse in 50% mineral soil/50% soil-less Metro mix until the first leaf was fully emerged, with 7-10 seedlings per pot. These plants were inoculated with an aqueous spore suspension of Puccinia triticina either prior to or after fungicide treatments. After inoculation the plants were kept in a dark dew room at 22° C. with 100% relative humidity overnight to permit spores to germinate and infect the leaf. The plants were then transferred to a greenhouse set at 24° C. for disease to develop. Fungicide formulation, application and disease assessment followed the procedures as described in the Example A.” for “plants.”

[3] = 24 h, 1 Day Protectant, read-out: SEPTTR 1 DP disease control
[4] = 72 h, 3 Day Curative, read-out: SEPTTR 3 DC disease control
[5] = 72 h, 3 Day Curative, read-out: PUCCRT 3 DC disease control
[6] = 24 h, 1 Day Protectant, read-out: PUCCRT 1 DP disease control

Row | SMILES | pest or weed control at 100 ppm [1, 3] [%] | pest or weed control at 100 ppm [1, 4] [%] | pest or weed control at 100 ppm [2, 5] [%] | pest or weed control at 100 ppm [2, 6] [%]
1 | CCCO[C@@H]1[C@@H](Cc2ccc(F)cc2)CCC[C@H](NC(=O)c2nccc(OC)c2O)C(=O)O[C@H]1C [Compound F13] | 80 to 100 | 80 to 100 | 0 to 80 | –
2 | COc1ccnc(C(=O)N[C@H]2CCC[C@H](Cc3ccc(F)cc3)[C@@H](OCC(C)C)[C@H](C)OC2=O)c1O [Compound F14] | 80 to 100 | 80 to 100 | 80 to 100 | 80 to 100
3 | COc1ccnc(C(=O)N[C@H]2CCC[C@H](Cc3ccc(F)cc3)[C@@H](OCC(F)F)[C@H](C)OC2=O)c1O [Compound F15] | 80 to 100 | 80 to 100 | 80 to 100 | 80 to 100
4 | COc1ccnc(C(=O)N[C@H]2CCC[C@H](Cc3ccc(F)cc3)[C@@H](OC(=O)C3CCCC3)[C@H](C)OC2=O)c1O [Compound F16] | 80 to 100 | 0 to 80 | 0 to 80 | 80 to 100
5 | COc1ccnc(C(=O)N[C@H]2CCC[C@H](Cc3ccc(F)cc3)[C@@H](OC(=O)C(C)C)[C@H](C)OC2=O)c1O [Compound F17] | 80 to 100 | 80 to 100 | 0 to 80 | 80 to 100
6 | COc1ccnc(C(=O)N[C@H]2CCC[C@H](Cc3ccccc3)[C@@H](OCC(C)C)[C@H](C)OC2=O)c1O [Compound F18] | 80 to 100 | 80 to 100 | 0 to 80 | 80 to 100
7 | COc1ccnc(C(=O)N[C@H]2CCC[C@H](Cc3ccccc3)[C@@H](OCC3CC3)[C@H](C)OC2=O)c1O [Compound F19] | 80 to 100 | 80 to 100 | 80 to 100 | 80 to 100
8 | COc1ccnc(C(=O)N[C@H]2CCC[C@H](Cc3ccccc3)[C@@H](Oc3ccccc3)[C@H](C)OC2=O)c1O [Compound F20] | 80 to 100 | 80 to 100 | 0 to 80 | 80 to 100
9 | CCCO[C@@H]1[C@@H](Cc2ccccc2)CCC[C@H](NC(=O)c2nccc(OC)c2O)C(=O)O[C@H]1C [Compound F21] | 0 to 80 | 0 to 80 | 80 to 100 | 80 to 100
10 | COc1ccnc(C(=O)N[C@H]2CCC[C@H](Cc3ccccc3)[C@@H](OC3CCCC3)[C@H](C)OC2=O)c1O [Compound F22] | 80 to 100 | 80 to 100 | 80 to 100 | 80 to 100
11 | CCO[C@@H]1[C@@H](Cc2ccccc2)CCC[C@H](NC(=O)c2nccc(OC)c2O)C(=O)O[C@H]1C [Compound F23] | 80 to 100 | 80 to 100 | 80 to 100 | 80 to 100
12 | COCCO[C@@H]1[C@@H](Cc2ccccc2)CCC[C@H](NC(=O)c2nccc(OC)c2O)C(=O)O[C@H]1C [Compound F24] | 80 to 100 | 80 to 100 | 80 to 100 | 80 to 100
13 | COc1ccnc(C(=O)N[C@H]2CCC[C@H](CC3CCCCC3)[C@@H](OCC(C)C)[C@H](C)OC2=O)c1O [Compound F25] | 80 to 100 | 0 to 80 | – | 80 to 100
14 | COc1ccc(C[C@H]2CCC[C@H](NC(=O)c3nccc(OC)c3O)C(=O)O[C@@H](C)[C@@H]2Oc2ccccc2)cc1 [Compound F26] | 80 to 100 | 80 to 100 | 0 to 80 | 80 to 100
15 | COc1ccnc(C(=O)N[C@H]2CCC[C@H](CC3CCCC3)[C@@H](Oc3ccccc3)[C@H](C)OC2=O)c1O [Compound F27] | 80 to 100 | 80 to 100 | 80 to 100 | 80 to 100
16 | COc1ccc(C[C@H]2CCC[C@H](NC(=O)c3nccc(OC)c3O)C(=O)O[C@@H](C)[C@@H]2OC(=O)C2CCCC2)cc1 [Compound F28] | 80 to 100 | 0 to 80 | – | 80 to 100
17 | COc1ccc(C[C@H]2CCC[C@H](NC(=O)c3nccc(OC)c3O)C(=O)O[C@@H](C)[C@@H]2OCC2CC2)cc1 [Compound F30] | 80 to 100 | 80 to 100 | 80 to 100 | 80 to 100
18 | COc1ccnc(C(=O)N[C@H]2CCC[C@H](CC3CCCC3)[C@@H](OCC3CC3)[C@H](C)OC2=O)c1O [Compound F31] | 80 to 100 | 80 to 100 | 80 to 100 | 80 to 100
19 | COc1ccc(C[C@H]2CCC[C@H](NC(=O)c3nccc(OC)c3O)C(=O)O[C@@H](C)[C@@H]2OCC(C)C)cc1 [Compound F32] | 80 to 100 | 80 to 100 | 0 to 80 | 80 to 100
20 | CCCO[C@@H]1[C@@H](Cc2ccc(OC)cc2)CCC[C@H](NC(=O)c2nccc(OC)c2O)C(=O)O[C@H]1C [Compound F33] | 80 to 100 | 80 to 100 | 80 to 100 | 80 to 100
21 | COc1ccnc(C(=O)N[C@H]2CCC[C@H](Cc3ccco3)[C@@H](OCC(C)C)[C@H](C)OC2=O)c1O [Compound F34] | 80 to 100 | 80 to 100 | 80 to 100 | 80 to 100
22 | COc1ccnc(C(=O)N[C@H]2CCC[C@H](CC3CCCC3)[C@@H](OC(=O)C(C)C)[C@H](C)OC2=O)c1O [Compound F35] | 80 to 100 | – | – | 0 to 80
23 | CCCO[C@@H]1[C@@H](CC2CCCC2)CCC[C@H](NC(=O)c2nccc(OC)c2O)C(=O)O[C@H]1C [Compound F36] | 80 to 100 | – | – | 80 to 100
24 | COc1ccnc(C(=O)N[C@H]2CCC[C@H](CC3CCCC3)[C@@H](OCC(C)C)[C@H](C)OC2=O)c1O [Compound F37] | 80 to 100 | – | 0 to 80 | 0 to 80
25 | COc1ccnc(C(=O)N[C@H]2CCC[C@H](C)[C@@H](Oc3ccccc3)[C@H](C)OC2=O)c1O [Compound F38] | 80 to 100 | – | 80 to 100 | 80 to 100
26 | COc1ccnc(C(=O)N[C@H]2CCC[C@H](C)[C@@H](OCc3ccccc3)[C@H](C)OC2=O)c1O [Compound F39] | 80 to 100 | 0 to 80 | 80 to 100 | 80 to 100
27 | COc1ccnc(C(=O)N[C@H]2CCC[C@H](Cc3ccccc3)[C@@H](O)[C@H](C)OC2=O)c1O [Compound F40] | 0 to 80 | 0 to 80 | 0 to 80 | 80 to 100
28 | COc1ccnc(C(=O)N[C@H]2CCC[C@H](Cc3ccc(C)cc3)[C@@H](OCC3CC3)[C@H](C)OC2=O)c1O [Compound F42] | 80 to 100 | 80 to 100 | 80 to 100 | 80 to 100
